Here are results for 2 compounds from PMC5918173, “Characterization of Transglutaminase 2 activity inhibitors in monocytes in vitro and their effect in a mouse model for multiple sclerosis” (PLoS ONE, 2018).

Experiment [1] has as its system fibronectin assembly. The arrangement: method as in PMID 26133787, PMID 17099729. To be noted: cited from earlier work.
Experiment [2] addresses T1, TG2-fibronectin (FN42) interaction (Homo sapiens, UniProt P21980).
T1 construct: purchased Zedira
T1 sequence (P21980 1-687): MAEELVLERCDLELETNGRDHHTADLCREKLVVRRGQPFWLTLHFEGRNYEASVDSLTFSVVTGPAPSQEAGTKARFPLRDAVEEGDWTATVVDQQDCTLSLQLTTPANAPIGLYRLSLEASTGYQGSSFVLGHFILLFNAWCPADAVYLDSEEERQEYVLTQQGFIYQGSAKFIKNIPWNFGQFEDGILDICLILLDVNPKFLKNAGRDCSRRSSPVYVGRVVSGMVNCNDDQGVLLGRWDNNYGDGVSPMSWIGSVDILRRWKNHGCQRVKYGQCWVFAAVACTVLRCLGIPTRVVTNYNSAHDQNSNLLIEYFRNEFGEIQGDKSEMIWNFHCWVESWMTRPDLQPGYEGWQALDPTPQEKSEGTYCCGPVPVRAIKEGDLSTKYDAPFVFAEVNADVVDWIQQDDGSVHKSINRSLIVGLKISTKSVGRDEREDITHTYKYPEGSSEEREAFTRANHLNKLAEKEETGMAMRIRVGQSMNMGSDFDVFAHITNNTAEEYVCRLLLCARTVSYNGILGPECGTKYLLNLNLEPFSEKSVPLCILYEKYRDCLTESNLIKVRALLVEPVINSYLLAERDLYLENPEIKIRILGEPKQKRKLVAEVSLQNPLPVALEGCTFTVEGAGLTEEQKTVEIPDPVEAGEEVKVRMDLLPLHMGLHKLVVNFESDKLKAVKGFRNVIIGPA
Briefly: TG2 interaction with fibronectin (FN42) ELISA. It counts as binding. To be noted: 5 and 15 μM, with or without 1 mM CaCl2, Fig 2E, 2F. The procedure: To determine the potential effect of BJJF078 and ERW1041E on the interaction of TG2 with fibronectin, ELISA experiments were performed as described previously. Briefly, 96 well ELISA plates (Nunc, Maxisorp) were coated with 100 μg/ml mouse anti his-tag monoclonal antibody (Roche) in PBS at 4°C overnight. This was followed by simultaneous washing and blocking with 0.5% BSA in PBS (3x 10 min). Per well 50 μl of a 10 nM human recombinant TG2 (his-tagged, Zedira) solution in PBS was added. Into each well (triplicates) either DMSO (control, 1% final concentration) or TG2 inhibitors (BJJF078, ERW1041E, final concentration 5 and 15 μM in 1% DMSO) were added. As a positive control similar concentrations of TG53, a small molecule that inhibits the interaction between TG2 and fibronectin was added (kindly provided by Prof D. Matei, Northwestern University, Chicago, USA). […] After 1 h incubation at RT, 50 μl of 10 nM FN42-biotin solution (kindly provided by Prof D. Matei) was added to the wells. After an additional 1 h incubation at RT and washing steps (3x 10 min) with 0.5% BSA in PBS, 100 μl streptavidin-HRPO conjugate (from kit opr001, Covalab) was added and incubated for 1 h at RT. This was followed by another series of washes and the colour reaction started with 100 μl of 3,3′,5,5′ tetramethylbenzidine substrate (TMB, from kit opr001, Covalab). After sufficient colour development (15 min), the reaction was stopped with 1M HCl and absorbance was measured at 450 nm.
For orientation: An ELISA detects its analyte on a solid surface through an enzyme-linked reagent.

In the case of `O=C(N[C@@H](Cc1ccc(O)cc1)C(=O)NCC1CC(Br)=NO1)OCc1ccccc1` (some centres unmarked) [KCC009], in experiment [1], the “effect on fibronectin assembly” value is “can interfere with fibronectin assembly”.
As for `COc1ccc(Cl)cc1C(=O)Nc1ccc(Nc2nc(C)cc(N(C)C)n2)cc1` [TG53], the “effect on binding of TG2 to fibronectin (FN42)” value in experiment [2] was “dose-dependent reduction”.
